Laboratory results taken from patent US10758534B2 (Vertex Pharmaceuticals Incorporated, priority 2014, dated 2020).

molecular target: T1, F508del (Homo sapiens, UniProt P13569, DEL508-508); assay: Protocol 1: membrane potential optical assay (FLIPR III, voltage sensing dye), identification of potentiator compounds; assay type: cell-based; conditions: Table 3, compounds of Table 1
T1 construct: expressed in transfected cells
Summary of the method: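 Membrane potential in forskolin-activated, temperature-rescued F508del NIH 3T3 cells is followed with a voltage-sensing dye on FLIPR III. A chloride ion gradient created at the single addition step provides the driving force, after prior compound treatment.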

T1 sequence (P13569 with tags, fused parts or gaps DEL508-508): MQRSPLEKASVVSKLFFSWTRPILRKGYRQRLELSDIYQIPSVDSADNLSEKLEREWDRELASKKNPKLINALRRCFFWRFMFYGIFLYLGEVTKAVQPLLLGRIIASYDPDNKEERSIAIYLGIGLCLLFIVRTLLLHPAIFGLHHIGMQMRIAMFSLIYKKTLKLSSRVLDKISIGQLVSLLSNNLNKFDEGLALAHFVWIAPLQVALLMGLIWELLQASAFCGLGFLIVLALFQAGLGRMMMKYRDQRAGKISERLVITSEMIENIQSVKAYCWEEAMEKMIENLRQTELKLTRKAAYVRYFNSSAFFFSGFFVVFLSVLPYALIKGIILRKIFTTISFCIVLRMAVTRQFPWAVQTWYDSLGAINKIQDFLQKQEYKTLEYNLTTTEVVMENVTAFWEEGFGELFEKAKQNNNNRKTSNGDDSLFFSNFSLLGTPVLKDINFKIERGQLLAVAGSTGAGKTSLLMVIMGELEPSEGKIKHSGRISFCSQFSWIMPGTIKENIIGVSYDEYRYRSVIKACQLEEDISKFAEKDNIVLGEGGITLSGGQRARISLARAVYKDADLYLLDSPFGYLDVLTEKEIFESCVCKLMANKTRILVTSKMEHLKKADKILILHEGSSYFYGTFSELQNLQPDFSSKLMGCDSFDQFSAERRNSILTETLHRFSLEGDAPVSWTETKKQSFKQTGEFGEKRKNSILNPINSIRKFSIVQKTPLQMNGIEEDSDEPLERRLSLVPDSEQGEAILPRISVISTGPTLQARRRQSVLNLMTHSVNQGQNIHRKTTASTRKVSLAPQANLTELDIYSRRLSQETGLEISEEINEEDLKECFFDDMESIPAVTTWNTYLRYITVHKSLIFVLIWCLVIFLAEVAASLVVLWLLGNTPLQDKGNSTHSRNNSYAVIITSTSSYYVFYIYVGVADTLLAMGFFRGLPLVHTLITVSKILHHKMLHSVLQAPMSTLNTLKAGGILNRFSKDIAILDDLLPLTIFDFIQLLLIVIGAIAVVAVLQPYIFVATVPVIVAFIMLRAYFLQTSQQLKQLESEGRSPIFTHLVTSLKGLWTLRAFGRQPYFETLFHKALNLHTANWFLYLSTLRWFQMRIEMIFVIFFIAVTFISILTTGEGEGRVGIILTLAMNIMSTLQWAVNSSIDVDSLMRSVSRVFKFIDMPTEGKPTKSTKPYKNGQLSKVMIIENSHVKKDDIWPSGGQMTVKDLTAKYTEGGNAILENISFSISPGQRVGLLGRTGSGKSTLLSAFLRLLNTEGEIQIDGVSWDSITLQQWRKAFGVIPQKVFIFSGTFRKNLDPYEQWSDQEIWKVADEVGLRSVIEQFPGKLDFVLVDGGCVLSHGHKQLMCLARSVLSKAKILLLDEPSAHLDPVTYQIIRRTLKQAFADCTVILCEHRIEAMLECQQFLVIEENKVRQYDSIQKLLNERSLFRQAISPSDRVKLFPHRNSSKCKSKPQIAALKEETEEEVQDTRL

Compound | EC30
Cc1cc(C)c(Oc2nc(-c3ccc4[nH]ncc4c3)ccc2C(=O)NS(=O)(=O)c2cccc(N)n2)c(C)c1 [Compound 856, N-[(6-amino-2-pyridyl)sulfonyl]-6-(1H-indazol-5-yl)-2-(2,4,6-trimethylphenoxy)pyridine-3-carboxamide] | ++ (“++” means between 3 uM and 10 uM)
CC(C)COc1cc(F)cc(-c2ccc(C(=O)NS(=O)(=O)c3ccccc3)c(N3C[C@H](C)CC3(C)C)n2)c1 [Compound 1396, N-(benzenesulfonyl)-6-(3-fluoro-5-isobutoxy-phenyl)-2-[(4R)-2,2,4-trimethylpyrrolidin-1-yl]pyridine-3-carboxamide] | +++ (“+++” means <3 uM)
C[C@@H]1CN(c2nc(C3=CC(C)(C)CCC3=O)ccc2C(=O)NS(=O)(=O)c2cccc(N)n2)C(C)(C)C1 [Compound 1462, N-[(6-amino-2-pyridyl)sulfonyl]-6-(3,3-dimethyl-6-oxo-cyclohexen-1-yl)-2-[(4S)-2,2,4-trimethylpyrrolidin-1-yl]pyridine-3-carboxamide] | +++ (“+++” means <3 uM)
C[C@@H]1CN(c2nc(-c3ccc(C(F)(F)F)cc3)ccc2C(=O)NS(=O)(=O)N2CC[C@H](N)C2)C(C)(C)C1 [Compound 1900, N-[(3S)-3-aminopyrrolidin-1-yl]sulfonyl-6-[4-(trifluoromethyl)phenyl]-2-[(4S)-2,2,4-trimethylpyrrolidin-1-yl]pyridine-3-carboxamide] | ++ (“++” means between 3 uM and 10 uM)
CCOc1cccc2c1CN(Cc1c(C)cc(C)cc1C)C2(C)C(=O)NS(=O)(=O)c1ccccn1 (centres unmarked) [Compound 1474, 4-ethoxy-1-methyl-N-(2-pyridylsulfonyl)-2-[(2,4,6-trimethylphenyl)methyl]isoindoline-1-carboxamide] | +++ (“+++” means <3 uM)
Cc1cc(C)c(Oc2nc(-c3cnn(C(C)C)c3)ccc2C(=O)NS(=O)(=O)c2cccc(N)n2)c(C)c1 [Compound 808, N-[(6-amino-2-pyridyl)sulfonyl]-6-(1-isopropylpyrazol-4-yl)-2-(2,4,6-trimethylphenoxy)pyridine-3-carboxamide] | ++ (“++” means between 3 uM and 10 uM)
Cc1cc(OC(C)C)ncc1-c1ccc(C(=O)NS(=O)(=O)c2cccc(N)n2)c(N2CC(C)CC2(C)C)n1 (centres unmarked) [Compound 905, N-[(6-amino-2-pyridyl)sulfonyl]-6-(6-isopropoxy-4-methyl-3-pyridyl)-2-(2,2,4-trimethylpyrrolidin-1-yl)pyridine-3-carboxamide] | +++ (“+++” means <3 uM)
CC(C)COc1cc(F)cc(-c2ccc(C(=O)NS(=O)(=O)c3cccc(N)n3)c(OC(C)CC3CCOCC3)n2)c1 (centres unmarked) [Compound 1361, N-[(6-amino-2-pyridyl)sulfonyl]-6-(3-fluoro-5-isobutoxy-phenyl)-2-(1-methyl-2-tetrahydropyran-4-yl-ethoxy)pyridine-3-carboxamide] | +++ (“+++” means <3 uM)
CCC1CCCN(c2nc(-c3ccc(OC(C)C)nc3)ccc2C(=O)NS(=O)(=O)c2cccc(N)n2)C1 (centres unmarked) [Compound 1023, N-[(6-amino-2-pyridyl)sulfonyl]-2-(3-ethyl-1-piperidyl)-6-(6-isopropoxy-3-pyridyl)pyridine-3-carboxamide] | +++ (“+++” means <3 uM)
CCOC1CCCN(c2nc(-c3ccc(OC(C)C)nc3)ccc2C(=O)NS(=O)(=O)c2cccc(N)n2)C1 (centres unmarked) [Compound 960, N-[(6-amino-2-pyridyl)sulfonyl]-2-(3-ethoxy-1-piperidyl)-6-(6-isopropoxy-3-pyridyl)pyridine-3-carboxamide] | ++ (“++” means between 3 uM and 10 uM)
CC1CN(c2ncccc2C(=O)NS(=O)(=O)c2cccc(N(C)Cc3ccccc3)n2)C(C)(C)C1 (centres unmarked) [Compound 1827, N—[[6-[benzyl(methyl)amino]-2-pyridyl]sulfonyl]-2-(2,2,4-trimethylpyrrolidin-1-yl)pyridine-3-carboxamide] | +++ (“+++” means <3 uM)
